In PubChem BioAssay (NCI) one finds TGI and GI50 data, which are given here for 9 compounds.

Test systems include ACHN renal; CCRF-CEM leukemia; NCI-H23 lung; MALME-3M melanoma; OVCAR-3 ovarian; M14 melanoma; HT29 colon; 786-0 renal; SF-539 CNS; UACC-62 melanoma.
Common to all, as to assay: DTP human tumour cell line panel, 48 h

“And” between values parts separate entries of the source, which are not always exact repeats. Equal entries are not always repeated.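 Tested at 5 concentrations; 48 h exposure; 96-well plates; endpoints linearly interpolated, else capped at highest concentration. GI50 is the concentration that inhibits growth by half. The concentration for full growth arrest is given as TGI.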

As to `O=[P+](O)c1ccccn1`, the TGI with ACHN renal, in the experiment on CCRF-CEM leukemia, in the experiment with NCI-H23 lung, with MALME-3M melanoma, in the experiment with OVCAR-3 ovarian and with M14 melanoma was greater than 100 µM in each case. Moreover, the TGI with HT29 colon, in the experiment with 786-0 renal, with SF-539 CNS and in the experiment with UACC-62 melanoma was greater than 100 µM in each case.

Regarding `Cc1cccc(C)c1NC(=O)CCc1nnc2s/c(=C\c3ccc(N(C)C)cc3)c(=O)n12`, the TGI in the experiment on ACHN renal, in the experiment with CCRF-CEM leukemia, in the experiment with NCI-H23 lung, with MALME-3M melanoma, in the experiment with OVCAR-3 ovarian and with M14 melanoma was greater than 100 µM each time. Besides, the TGI in the experiment on HT29 colon, with 786-0 renal, with SF-539 CNS and in the experiment with UACC-62 melanoma was greater than 100 µM each time.

As to `CCOC(=O)C(Cc1c[nH]c2cc(N(CCO)CCO)ccc12)(NC(C)=O)C(=O)OCC`, the GI50 in the experiment on ACHN renal is 481 µM; in the experiment on NCI-H23 lung, 491 µM; in the experiment with MALME-3M melanoma it was 258 µM; in the experiment with OVCAR-3 ovarian it was 186 µM; in the experiment on M14 melanoma, 517 µM; in the experiment on HT29 colon, 305 µM. Besides, the GI50 was 919 µM with 786-0 renal; 42.9 µM and 286 µM in the experiment with SF-539 CNS; 66.8 µM in the experiment with UACC-62 melanoma. The TGI with ACHN renal is greater than 1000 µM; in the experiment on CCRF-CEM leukemia, 57.2 µM and 448 µM; in the experiment with NCI-H23 lung, greater than 1000 µM; in the experiment on MALME-3M melanoma, greater than 1000 µM; in the experiment with OVCAR-3 ovarian, 726 µM; in the experiment on M14 melanoma, greater than 1000 µM. Besides, the TGI in the experiment with HT29 colon is greater than 1000 µM; in the experiment with 786-0 renal, greater than 1000 µM; in the experiment on SF-539 CNS it was 770 µM; in the experiment with UACC-62 melanoma, greater than 1000 µM.

Turning to `COc1cccc(/C=C/c2nc3c(cnn3-c3ccccc3)c(=O)[nH]2)c1`, the GI50 in the experiment with ACHN renal is 28.1 µM; with CCRF-CEM leukemia, greater than 100 µM; in the experiment with NCI-H23 lung it was greater than 100 µM; with MALME-3M melanoma, greater than 100 µM; with OVCAR-3 ovarian, 24.9 µM; in the experiment with M14 melanoma, greater than 39 µM. In addition, the GI50 in the experiment with HT29 colon was greater than 59 µM; in the experiment on 786-0 renal, 12.4 µM; with SF-539 CNS, greater than 70 µM; with UACC-62 melanoma, greater than 100 µM. Besides, the TGI in the experiment on ACHN renal, in the experiment with CCRF-CEM leukemia, in the experiment with NCI-H23 lung, in the experiment with MALME-3M melanoma, in the experiment on OVCAR-3 ovarian and with M14 melanoma was greater than 100 µM throughout. In addition, the concentration for total growth inhibition (TGI) with HT29 colon, with 786-0 renal, in the experiment on SF-539 CNS and in the experiment on UACC-62 melanoma was greater than 100 µM throughout.

On to `COC(=O)CCC(=O)N1C/C(=C\c2ccccc2)C(=O)/C(=C/c2ccccc2)C1`, for which the TGI in the experiment on ACHN renal is 3.8 µM; with CCRF-CEM leukemia, greater than 100 µM; with NCI-H23 lung, 4.35 µM; in the experiment on MALME-3M melanoma, 4.62 µM; with OVCAR-3 ovarian it was 5.01 µM; with M14 melanoma it was 3.93 µM. For the same compound, the TGI with HT29 colon is 4.09 µM; with 786-0 renal it was 3.75 µM; in the experiment on SF-539 CNS it was 7.53 µM; in the experiment with UACC-62 melanoma it was 3.61 µM.

`Cc1cc(C(=O)/C=C/c2ccc[nH]2)ccc1-n1ccc(C(F)(F)F)n1`: the GI50 in the experiment on ACHN renal was 21.3 µM; in the experiment with CCRF-CEM leukemia it was 2.55 µM; in the experiment with NCI-H23 lung it was 14.9 µM; in the experiment on MALME-3M melanoma, 7.25 µM; in the experiment on OVCAR-3 ovarian, 2.29 µM; in the experiment with M14 melanoma, 30.7 µM. In addition, the GI50 in the experiment on HT29 colon was 14.4 µM; with 786-0 renal it was 3.54 µM; in the experiment on SF-539 CNS, 2.69 µM; in the experiment on UACC-62 melanoma, 21.4 µM. Also, the TGI in the experiment with ACHN renal was greater than 100 µM; with CCRF-CEM leukemia it was greater than 100 µM; in the experiment on NCI-H23 lung, greater than 100 µM; in the experiment with MALME-3M melanoma, 54.7 µM; in the experiment on OVCAR-3 ovarian, 6.78 µM; with M14 melanoma, greater than 100 µM. The TGI was greater than 100 µM in the experiment with HT29 colon, greater than 100 µM with 786-0 renal, 9.13 µM with SF-539 CNS and greater than 100 µM in the experiment on UACC-62 melanoma.

Take `O=c1c2cc(Br)cc(Br)c2nc(CCCl)n1-c1ccc(O)c([N+](=O)[O-])c1`: the total growth inhibition concentration (TGI) was determined as 33.9 µM in the experiment on ACHN renal; 43.7 µM with CCRF-CEM leukemia; 46.5 µM with NCI-H23 lung; 36.4 µM with MALME-3M melanoma; 33.7 µM in the experiment with OVCAR-3 ovarian; 31.9 µM with M14 melanoma. Further, the concentration for total growth inhibition (TGI) with HT29 colon turned out to be 41.1 µM; in the experiment on 786-0 renal, 32.4 µM; with SF-539 CNS, 37.1 µM; in the experiment on UACC-62 melanoma it was 47.3 µM.

On to `Cc1cc(-c2nnc(/C=C/c3ccc4c(c3)OCO4)o2)n[nH]1`, for which the GI50 with ACHN renal is 27.2 µM; with CCRF-CEM leukemia it was 2.05 µM; in the experiment on NCI-H23 lung it was 11.9 µM; with MALME-3M melanoma, 8.96 µM; in the experiment with OVCAR-3 ovarian it was 4.6 µM; with M14 melanoma it was 6.32 µM. Besides, the GI50 is 13.8 µM in the experiment with HT29 colon, 16.7 µM in the experiment on 786-0 renal, 12.5 µM in the experiment on SF-539 CNS and 15.3 µM with UACC-62 melanoma. The TGI in the experiment with ACHN renal is greater than 50 µM; in the experiment on CCRF-CEM leukemia it was 19.1 µM; with NCI-H23 lung, greater than 50 µM; in the experiment on MALME-3M melanoma it was greater than 50 µM; with OVCAR-3 ovarian it was 20.7 µM; in the experiment on M14 melanoma, 21.1 µM. Moreover, the TGI in the experiment on HT29 colon is 43.4 µM; in the experiment with 786-0 renal, greater than 50 µM; in the experiment with SF-539 CNS it was greater than 50 µM; in the experiment with UACC-62 melanoma it was greater than 50 µM.

Regarding `COc1cc(Cl)cc(-c2nn(-c3cccc(NC(=O)Nc4cccc(C(F)(F)F)c4)c3)cc2-c2ccncc2)c1`, the GI50 in the experiment on ACHN renal is 1.72 µM; in the experiment with CCRF-CEM leukemia, 1.2 µM; in the experiment on NCI-H23 lung, 1.76 µM; with MALME-3M melanoma it was 1.79 µM; with OVCAR-3 ovarian, 0.592 µM; in the experiment on M14 melanoma, 1.34 µM. Moreover, the GI50 was 1.51 µM in the experiment on HT29 colon, 1.94 µM in the experiment with 786-0 renal, 1.9 µM in the experiment with SF-539 CNS and 1.47 µM in the experiment on UACC-62 melanoma. Also, the TGI in the experiment with ACHN renal is 16.2 µM; in the experiment with CCRF-CEM leukemia, 5.36 µM; in the experiment on NCI-H23 lung it was 6.69 µM; with MALME-3M melanoma it was 5.91 µM; with OVCAR-3 ovarian, 4.62 µM; in the experiment with M14 melanoma, 3.98 µM. The TGI in the experiment with HT29 colon turned out to be 6.24 µM; in the experiment with 786-0 renal it was 6.78 µM; in the experiment on SF-539 CNS it was 4.82 µM; with UACC-62 melanoma it was 3.84 µM.
